From publication PMC10762035, “Molecular basis of human trace amine-associated receptor 1 activation” (Nature Communications, 2024)
Substitutions are numbered along the chain they refer to. Values joined by “and” are separate entries in the source; they are usually repeats but may differ in a detail not shown here. Identical values can stand only once. Like-named read-outs stand apart in the source and are kept apart here.

Experiments:
Format in all cases: cell-based
hTA1 W264F = target: T1, hTA1 W264F (Homo sapiens, UniProt Q96RJ0, W264F); experiment: GloSensor cAMP accumulation assay, W264F mutant; conditions: W264F;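 note: cells transiently transfected with receptor plus GloSensor, luminescence read 30 min after agonist addition at room temperature, concentration-response curves fitted by log(agonist) vs response regression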
T1 construct: expressed in transfected cells; host or cells: HEK293T
T1 sequence (Q96RJ0 1-339 W264F): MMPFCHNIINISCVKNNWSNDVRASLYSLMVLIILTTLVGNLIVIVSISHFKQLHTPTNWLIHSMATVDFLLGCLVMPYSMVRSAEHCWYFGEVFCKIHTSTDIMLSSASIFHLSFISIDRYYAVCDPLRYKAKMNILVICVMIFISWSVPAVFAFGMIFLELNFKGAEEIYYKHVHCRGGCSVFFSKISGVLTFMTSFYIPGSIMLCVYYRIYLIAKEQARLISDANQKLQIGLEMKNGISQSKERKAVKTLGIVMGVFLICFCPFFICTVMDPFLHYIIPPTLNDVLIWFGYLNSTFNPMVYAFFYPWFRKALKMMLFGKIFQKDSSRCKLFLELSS

hTA1 I290N = target: T2, hTA1 I290N (Homo sapiens, UniProt Q96RJ0, I290N); experiment: GloSensor cAMP accumulation assay, I290N mutant;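 note: cells transiently co-expressing hTA1 and the GloSensor cAMP biosensor, luminescence read 30 min after compound addition at room temperature, efficacy scaled to the maximal β-PEA response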
T2 construct: expressed in transfected cells; host or cells: HEK293T
T2 sequence (Q96RJ0 1-339 I290N): T1 sequence (Q96RJ0 1-339 W264F) with F264W, I290N

hTA1 C178S = target: T3, hTA1 C178S (Homo sapiens, UniProt Q96RJ0, C178S); experiment: GloSensor cAMP accumulation assay, C178S mutant; conditions: for Normalized Luminescence Counts: C178S (N=2), log[Agonist]
T3 construct: expressed in transfected cells; host or cells: HEK293T
T3 sequence (Q96RJ0 1-339 C178S): T1 sequence (Q96RJ0 1-339 W264F) with C178S, F264W

hTA1 S107C = target: T4, hTA1 S107C (Homo sapiens, UniProt Q96RJ0, S107C); experiment: GloSensor cAMP accumulation assay, S107C mutant; conditions: S107C;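 note: cells transiently co-expressing receptor and GloSensor biosensor, luminescence read after 30 min agonist exposure at room temperature, concentration-response fitted by nonlinear regression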
T4 construct: expressed in transfected cells; host or cells: HEK293T
T4 sequence (Q96RJ0 1-339 S107C): T1 sequence (Q96RJ0 1-339 W264F) with S107C, F264W

[1] = Asenapine, per experiment, 3 replicates
[2] = Asenapine, per experiment, 3 replicates, read-out: pEC50 values Mean (converted)
[3] = n=2, read-out: Span ± SEM (Emax normalized to β-PEA)

**Q.** With `CN1CC2c3ccccc3Oc3ccc(Cl)cc3C2C1` (stereo not shown) [asenapine] as the compound, how does the “ΔpEC50 values (each mutant value - WT average), Mean” value (hTA1 W264F; Asenapine) read?
**A.** The value was -2.045 and -2.029.

**Q.** What about the “Emax values, Mean” value (hTA1 W264F; [1]) of the same compound?
**A.** The value was 34.2126 and 58.204.

**Q.** What about the EC50 (hTA1 W264F; [2]) of the same compound?
**A.** The EC50 was 9610 nM and 9250 nM.

**Q.** What about the EC50 (hTA1 W264F; n=2, read-out: EC50) of the same compound?
**A.** The EC50 was 9430 nM.

**Q.** And the Emax (hTA1 W264F; [3])?
**A.** Its Emax is 46.2 ± 12%.

**Q.** What about the “reduction in potency vs wild type” value (hTA1 I290N; I290N) of the same compound?
**A.** Its value is 4 fold.

**Q.** And the “Emax values of Asenapine” value (hTA1 I290N; I290N, Mean of one experiment)?
**A.** Its value is 77.7708.

**Q.** And the Emax (hTA1 I290N; I290N, Mean of one experiment, read-out: Emax values of Asenapine)?
**A.** Its Emax is 90.3%.

**Q.** What about the EC50 (hTA1 I290N; I290N, Mean of one experiment, read-out: pEC50 values of Asenapine (converted)) of the same compound?
**A.** The EC50 was 1390 nM and 721 nM.

**Q.** What about the EC50 (hTA1 I290N; I290N, n=2, read-out: EC50) of the same compound?
**A.** Its EC50 is 1000 nM.

**Q.** And the Emax (hTA1 I290N; I290N, n=2, read-out: Span ± SEM (Emax normalized to β-PEA))?
**A.** The Emax was 84 ± 6.25%.

**Q.** And the EC50 (hTA1 I290N; I290N, n=2, read-out: pEC50 ± SEM (converted))?
**A.** The EC50 was 1000 nM.

**Q.** What about the Emax (hTA1 I290N; I290N, relative to β-PEA, read-out: Emax) of the same compound?
**A.** The Emax was 84%.

**Q.** What about the “ΔEmax values (each mutant value - WT average), I290N, Mean” value (hTA1 I290N; hTA1 I290N mutant vs WT average, Figure 6B, each line is one experiment (3 replicates)) of the same compound?
**A.** The value was 1.57 and -10.9365.

**Q.** And the “Normalized Luminescence Counts” value (hTA1 C178S; Asenapine, M -5)?
**A.** Its value is 75.4368 and 92.2127 and 77.6331 and 138.575 and 114.073 and 74.6126.

**Q.** And the “Normalized Luminescence Counts” value (hTA1 C178S; Asenapine, M -5.522)?
**A.** The value was 79.5957 and 78.8948 and 73.2872 and 121.163 and 122.988 and 72.6381.

**Q.** What about the “Normalized Luminescence Counts” value (hTA1 C178S; Asenapine, M -6) of the same compound?
**A.** The value was 71.3246 and 64.9226 and 70.9975 and 119.907 and 121.163 and 96.5417.

**Q.** And the “Normalized Luminescence Counts” value (hTA1 C178S; Asenapine, M -6.522)?
**A.** The value was 41.1373 and 42.2588 and 39.3616 and 54.3289 and 32.5494 and 43.2597.

**Q.** What about the “ΔpEC50 values (each mutant value - WT average), Mean” value (hTA1 C178S; C178S, Asenapine) of the same compound?
**A.** Its value is -0.5777 and -0.5455.

**Q.** And the “Emax values, Mean” value (hTA1 C178S; C178S, Asenapine, per experiment, 3 replicates)?
**A.** The value was 87.2953 and 116.77.

**Q.** What about the EC50 (hTA1 C178S; C178S, Asenapine, per experiment, 3 replicates, read-out: pEC50 values Mean (converted)) of the same compound?
**A.** Its EC50 is 327 nM and 304 nM.

**Q.** And the EC50 (hTA1 C178S; C178S, n=2, read-out: EC50)?
**A.** Its EC50 is 315 nM.

**Q.** What about the Emax (hTA1 C178S; C178S, n=2, read-out: Span ± SEM (Emax normalized to β-PEA)) of the same compound?
**A.** The Emax was 102%.

**Q.** What about the Emax (hTA1 C178S; C178S, relative to β-PEA, read-out: Emax) of the same compound?
**A.** Its Emax is 102%.

**Q.** And the “Emax values, Mean” value (hTA1 S107C; [1])?
**A.** Its value is 91.6842 and 105.217.

**Q.** What about the EC50 (hTA1 S107C; [2]) of the same compound?
**A.** Its EC50 is 383 nM and 996 nM.

**Q.** What about the EC50 (hTA1 S107C; n=2, read-out: EC50) of the same compound?
**A.** Its EC50 is 618 nM.

**Q.** What about the Emax (hTA1 S107C; [3]) of the same compound?
**A.** The Emax was 98.5 ± 6.76%.
